Experimental findings from patent US9517237B2, “Compounds and methods for treating multiple sclerosis” (NEURO VIGOR, LLC, priority 2010, dated 2016) are described below.

One data set deals with EAE mice spinal cord. As to conditions: thoracic spinal cord cross section, n=3, sham treated 25.58±3.8%.
The conditions of data set [1]: mouse, in vivo. As to the method:
(§1) Hydralazine Treatment. A solution of hydralazine hydrochloride (Sigma) was prepared with phosphate buffered saline. The solution was then sterilized through a filter and stored at 4° C. Hydralazine (1 mg/kg) was administered through daily with intraperitoneal injections from the day the MOG/CFA emulsion was administered until the end of the 30 day study period. For sham treatments, mice were administered saline intraperitoneally rather than the hydralazine solution. Blood pressures were monitored using a CODA 2 system (Kent Scientific Corp.).
(§2) One group of EAE mice are injected with hydralazine (EAE+HZ) at the dose of 1 mg/kg daily starting from the day of induction (n=11). In the sham-treated group (EAE), an equal amount of saline is injected daily (n=12). Both hydralazine and saline (sham) treatments are carried out for 30 days post induction. The behavioral scores of the two groups of mice are recorded daily (FIG. 2 panel A).

The test system of a further data set is acrolein-lysine adducts. As to conditions: EAE mice treated with hydralazine, n=3, mean±SEM; EAE 20.27±3.0, control 12.30±1.3.
In a further data set the test system is EAE mice. As to the method: Animals. C57BL/6 female mice (8 weeks old) were purchased from Harlan Laboratories and were maintained in the lab animal housing facilities. These studies were performed in compliance with the Purdue Animal Care and Use Committee protocol guidelines at Purdue University, West Lafayette, Ind.
Induction of EAE. Nine-twelve week old mice were subcutaneously injected with 0.1 mL MOG35-55/CFA emulsion (EK-0115, Hooke Laboratories) in the neck and lower back (total of 0.2 mL). Within two hours of the injection, 0.1 mL pertussis toxin (EK-0115, Hooke Laboratories) was administered intraperitoneally. A second dose of pertussis toxin of the same volume was given 22-26 hours later. The behavioral performance was assessed using a well established 5-point behavioral scoring system (Kalyvas and David, 2004). The animals were placed on a metal grate and their walking ability was recorded. The scoring system is as follows: 0—no deficit; 1—limp tail only; 2—hind limb paresis but without leg dragging; 3—partial hind limb weakness with one or both legs dragging; 4—complete hind limb paralysis; 5—moribund, paralysis in hind limbs and possibly in one forelimb. The animals were monitored and assessed three times during the first week and then assessed daily for the remainder of the study.
as §1, §2
Phenelzine is administered via intraperitoneal (IP) injections at 15 mg/kg for 30 days. […] The highest score for each mouse was taken and averaged within each group. All data are expressed as mean±SEM.

Description for EAE mice spinal cord: Mice were perfusion fixed with 4% paraformaldehyde and the vertebral columns were removed and fixed in 4% paraformaldehyde overnight. Spinal cord tissues were extracted out of the vertebral column, cut into 1 cm pieces, and further fixed in 4% paraformaldhyde for 24-48 hours. The samples were cryoprotected by incubating for 24 h in a 10% sucrose solution, followed by 24 hours in a 20% sucrose solution. The samples were then imbedded in Tissue-Tek OCT compound (VWR, Batavia, Ill.) and frozen in liquid nitrogen. 15 μm sections were cut using a cryostat and mounted on gelatin coated slides. Sections were incubated with 5% goat serum and 0.5% Triton-X100 in phosphate buffered saline (PBS) for 30 minutes as blocking agents. […] All sections were observed by fluorescence microscopy.
For quantification, the thoracic sections were imaged, and Adobe Photoshop was used to outline the demyelination area and total white matter area. Pixel area for each sample was calculated and the percentage of demyelination was obtained by dividing the total demyelinated area by total white matter area. […] For each of the 3 groups, (control, EAE, EAE+HZ), 3 animals were used for immunofluorescence quantification.
Total white matter area and lesion areas are manually outlined and the pixel area is calculated. Percent demyelination is calculated by dividing total demyelinated area by total white matter area.
Description for acrolein-lysine adducts: Acrolein-lysine adducts in the tissue homogenate was measured using a Bio-Dot SF Microfiltration Apparatus (Bio-Rad, Hercules, Calif., USA), as previously described (Luo et al., 2005a; Shao et al., 2006; Hamann et al., 2008a). Briefly, the tissue was homogenized with TritonX-100 (3%), and the following anti-proteases were added: 2 mmol/L pefabloc, 15 lmol/L pepstatin A, 20 µg/mL aprotinin, and 25 µg/mL leupeptin. The solution was centrifuged to pellet large pieces of tissue and the supernatant was stored at −80° C. until transferred to a nitrocellulose membrane. The membrane was blocked for 1 h in blocking buffer (0.2% casein and 0.1% Tween 20 in PBS) and transferred to 1:1000 polyclonal rabbit anti-acrolein (in blocking buffer with 2% goat serum and 0.025% sodium azide) (Novus Biologicals) for 18 h at 4° C. Next, the membrane was washed in blocking buffer and then transferred to 1:10000 alkaline phosphatase conjugated goat anti-rabbit IgG. […]
The optical density of bands was evaluated using Image J (NIH) and statistical comparison was performed with SAS 9.2 (SAS institute). […]
The acrolein-lysine adducts in control (n=3), EAE mice (n=3) and EAE+HZ mice (n=3) spinal cord are detected using Bio-Dot SF Microfiltration Apparatus. […] Band intensities are analyzed using ImageJ (NIH) and are expressed in arbitrary units. […] All data are expressed as mean±SEM.

For `NNc1nncc2ccccc12` [hydralazine], the “percent demyelination in white matter” value with EAE mice spinal cord is on record as 5.10±4.2%. Moreover, in data set [1], the “average systolic pressure of EAE mice” value amounted to 134.8±4.5 mmHg and the “average systolic pressure of normal mice” value was found to be 118.5±6.4 mmHg. The “acrolein-lysine adduct level in EAE mice spinal cord” value with acrolein-lysine adducts was found to be 15.14±1.6 a.u. In the data set on EAE mice (1 mg/kg daily i.p. from day of induction, n=11, mean±SEM, sham 15.42±0.4), the “average onset of symptoms” value came to 21.73±2.1 days post induction. Moreover, the “average behavioral score (highest score for each mouse averaged within group)” value in the data set on EAE mice (5-point scale, 1 mg/kg daily i.p. from day of induction, mean±SEM, EAE group 3.33±0.3) is recorded as 1.72±0.4.
With `NNCCc1ccccc1` [phenelzine], in the data set on EAE mice (5-point scale, phenelzine IP 15 mg/kg for 30 days, vs sham), the “behavioral scores evaluated daily” value was “significant differences for all comparisons following day 14”. Besides, the “mean behavioral scores (highest score for each mouse averaged)” value in the data set with EAE mice (phenelzine IP 15 mg/kg for 30 days, vs EAE, p<0.005) is “mean behavioral scores are significantly increased in EAE mice compared to the phenelzine treated (EAE+PLZ) group”. Moreover, the “time to EAE symptom onset” value in the data set on EAE mice (phenelzine IP 15 mg/kg for 30 days, vs sham, p<0.005) was “significant delay in disease progression”.
